In patent US20150157783A1, “METHOD TO SELECTIVELY BIND AND EXTRACT PHOSPHATE” (priority 2013, published 2015):

Assays:
[1] = UV-Vis titration, 1:1 binding of dihydrogen phosphate (Bu4N+ salt) in aqueous DMSO; conditions: for Binding constant (1:1) to H2PO4^−: 25% aqueous DMSO (v/v)
Method: (§1) Their interactions with anion salts were investigated in various aqueous dimethylsulfoxide (DMSO) mixtures.
(§2) Dilute non-aggregating solutions of a receptor S were titrated with a given anion X^− via a solution of its tetrabutylammonium salt and were monitored by UV-VIS spectrometery. UV absorption spectra (250-600 nm) were recorded three times for each solution and average values for each point were used; all of the spectra were background corrected by subtracting the absorption of the solvent. The wavelength with the maximum change in the concentration corrected absorption (Acor=A·C0/C, where C and C0 are the current and the initial receptor concentrations) was determined and then used for further analysis. Absorptions were plotted versus anion concentrations and the binding constants were determined by an iterative non-linear least squares curve fitting routine implemented in Excel using the equations below. Observed and calculated absorptions are given for each titration in the corresponding Tables and Figures.
(§3) K: binding constant for 1:1 complex formation
(§4) [S]:free receptor concentration
(§5) [S]0:total receptor concentration
(§6) [SX]:bound receptor concentration
(§7) [X]0:total anion concentration
(§8) A: absorption of the solution
(§9) A0:absorption of the initial solution (no anion added)
(§10) Amax:absorption of the solution if all the receptor was bound (infinite excess of anion at the initial receptor concentration)
(§11) In cases where there is a large excess of the anion, [X] about equals [X]0, and the plot of ΔAcor/[X] versus ΔAcor gives a straight line where the slope of the linear least squares fit of the data is the binding constant (K) and the intercept is K·ΔAmax:
(§12) with ΔAcor=(A−A0)·C0/C, where C and C0 are the current and the initial receptor concentrations; ΔAmax=Amax−A0.

[2] = UV-Vis titration, 1:1 binding of acetate (Bu4N+ salt) in aqueous DMSO; conditions: for Binding constant (1:1) to OAc^−: 25% aqueous DMSO (v/v)
Method: as §1, §2, §3, §4, §5, §6, §7, §8, §9, §10, §11, §12

[3] = Solubility of receptor (qualitative)
[4] = UV-Vis titration, 1:1 binding of chloride (Bu4N+ salt) in aqueous DMSO; conditions: 25% aqueous DMSO (v/v)
Method: as §1, §2, §3, §4, §5, §6, §7, §8
A0:absorption of the initial solution (no anion added) […]

Structure (SMILES)	K1-bis/K1-mono for dihydrogen phosphate ([1]; 25% aqueous DMSO)	Binding constant (1:1) to H2PO4^− [1] [M⁻¹]	Binding constant (1:1) to OAc^− [2] [M⁻¹]	solubility [3]	acetate binding strength relative to 1-mono ([2]; 25% aqueous DMSO)	Binding constant K of 1:1 adduct with H2PO4^− ([1]; 0.5% DMSO-H2O mixture, 0-1 equivalents of anion) [M⁻¹]	association constant relative to the statistical value (36 M^−1) expected for one-arm binding of H2PO4^− ([1]; 25% aqueous DMSO)	Binding constant (1:1) to Cl^− [4] [M⁻¹]
O=[N+]([O-])c1ccc(NC(=S)Nc2ccccc2-c2cccc(-c3ccccc3NC(=S)Nc3ccc([N+](=O)[O-])cc3)c2)cc1 [1-bis, 1,3-bis[2-(3-(4—Nitrophenyl)thioureido)phenyl]benzene]	about 2	28	–	–	–	–	–	–
O=[N+]([O-])c1ccc(NC(=S)Nc2ccccc2)cc1 [1-mono, 1-(4—Nitrophenyl)-3-phenylthiourea]	–	12	12	–	–	–	–	–
O=[N+]([O-])c1ccc(NC(=S)Nc2ccccc2-c2cc(-c3ccccc3NC(=S)Nc3ccc([N+](=O)[O-])cc3)cc(-c3ccccc3NC(=S)Nc3ccc([N+](=O)[O-])cc3)c2)cc1 [1-tris, 1,3,5-tris[2-(3-(4—Nitrophenyl)thioureido)phenyl]benzene]	–	4000	35	low solubility	three times more strongly	> 5e+06	more than 100 fold	1
FC(F)(F)c1cc(NC(=S)Nc2ccccc2-c2cc(-c3ccccc3NC(=S)Nc3cc(C(F)(F)F)cc(C(F)(F)F)c3)cc(-c3ccccc3NC(=S)Nc3cc(C(F)(F)F)cc(C(F)(F)F)c3)c2)cc(C(F)(F)F)c1 [2-tris, 1,3,5-tris[2-(3-(3,5-Trifluoromethylphenyl)thioureido)phenyl]benzene]	–	10000	–	more soluble	–	–	–	–
